Experimental findings from patent US20060073216A1, “Compositions and methods for control of bovine mastitis” (Solution Biosciences, Inc., priority 2002, published 2006) are described below.

The structures appear in SMILES notation.

The series can be described thus: Solubility in water. The format is physicochemical. The settings on record: water at 75° F. (ca. 24° C.), expressed as Cl2.

As to `CC1(C)C(=O)N(Br)C(=O)N1Br` [1,3-dibromo-5,5dimethylhydantoin, 1,3-dibromo-5,5-dimethylhydantoin], the solubility in water entry is reported as “about 405 ppm”.
Regarding `CC1(C)C(=O)N(Cl)C(=O)N1Br` [N,N′-bromochloro-5,5-dimethylhydantoin], the solubility in water result is given as “about 890 ppm”.
